According to US11286243B2 (GLOBAL BLOOD THERAPEUTICS, INC., priority 2018, dated 2022):

Target: T1, human ferroportin (Homo sapiens, UniProt Q9NP59)
T1 construct: luciferase reporter (probably NanoLuc: read with the Nano-Glo Luciferase Assay System); expressed in transfected cells; host or cells: CHO cells, stably transfected, doxycycline-inducible expression
T1 sequence (Q9NP59 1-571): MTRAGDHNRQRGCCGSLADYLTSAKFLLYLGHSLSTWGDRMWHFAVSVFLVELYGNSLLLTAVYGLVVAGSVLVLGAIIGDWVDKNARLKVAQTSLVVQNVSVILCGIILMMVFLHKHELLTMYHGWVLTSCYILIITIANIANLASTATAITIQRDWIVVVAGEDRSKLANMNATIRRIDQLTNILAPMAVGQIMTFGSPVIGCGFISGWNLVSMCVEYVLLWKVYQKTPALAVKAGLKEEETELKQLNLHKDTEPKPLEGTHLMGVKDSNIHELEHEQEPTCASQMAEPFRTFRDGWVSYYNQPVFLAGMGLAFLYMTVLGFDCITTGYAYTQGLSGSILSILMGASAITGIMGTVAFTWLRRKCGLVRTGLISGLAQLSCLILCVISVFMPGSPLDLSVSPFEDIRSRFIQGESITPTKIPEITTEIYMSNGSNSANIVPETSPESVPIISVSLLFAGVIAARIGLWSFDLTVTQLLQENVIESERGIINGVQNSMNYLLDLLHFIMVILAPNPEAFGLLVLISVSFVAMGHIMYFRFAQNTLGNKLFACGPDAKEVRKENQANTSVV
Test: In-vitro ferroportin internalization assay (luciferase reporter)
Assay type: cell-based
Settings: average pEC50; stably-transfected CHO cell line expressing human ferroportin tagged to a luciferase reporter; 6 h incubation with test compounds
Method: The protocol for this assay is generally as described in WO2018/128828, incorporated herein by reference in its entirety. Functional internalization of ferroportin protein was measured using a stably-transfected CHO cell line expressing the human ferroportin tagged to a luciferase reporter. Cells were plated for 24 h in the presence of ferric ammonium citrate (FAC). Ferroportin protein expression was induced with doxycycline for 24 h. The next day, the compounds were added. Test compounds were dissolved in DMSO. Cells were incubated with the test compounds for 6 h, and subsequently luciferase activity was measured using the Nano-Glo Luciferase Assay System and Glomax (Promega, Madison, Wis.).
The average pEC50 was determined for the test compounds.

Structure (SMILES)	pEC50
OC(CNCCc1nc2c(NCc3ncccc3F)ncnc2s1)c1nc2ccccc2[nH]1 (stereo not drawn) [Compound 50, 1-(1H-1,3-benzodiazol-2-yl)-2-{[2-(7-{[(3-fluoropyridin-2-yl)methyl]amino}-[1,3]thiazolo[5,4-d]pyrimidin-2-yl)ethyl]amino}ethan-1-ol]	5.1
C[C@H](CNCCc1nc2c(NCc3ncccc3F)ncnc2s1)c1nc2ccccc2[nH]1 [Compound 52, 2-(2-{[(2R)-2-(1H-1,3-benzodiazol-2-yl)propyl]amino}ethyl)-N-[(3-fluoropyridin-2-yl)methyl]-[1,3]thiazolo[5,4-d]pyrimidin-7-amine]	6.6
C[C@@H](CNCCc1nc2c(NCc3ncccc3F)ncnc2s1)c1nc2ccccc2[nH]1 [Compound 53, 2-(2-{[(2S)-2-(1H-1,3-benzodiazol-2-yl)propyl]amino}ethyl)-N-[(3-fluoropyridin-2-yl)methyl]-[1,3]thiazolo[5,4-d]pyrimidin-7-amine]	7.3
Oc1cccc(CNCCc2nc3c(NCc4ncccc4F)nccc3o2)c1 [Compound 54, 3-({[2-(4-{[(3-fluoropyridin-2-yl)methyl]amino}-[1,3]oxazolo[4,5-c]pyridin-2-yl)ethyl]amino}methyl)phenol]	5.1
Cc1cnc(CCNCCc2nc3c(NCc4ncccc4F)nccc3o2)[nH]1 [Compound 56, N-[(3-fluoropyridin-2-yl)methyl]-2-(2-{[2-(5-methyl-1H-imidazol-2-yl)ethyl]amino}ethyl)-[1,3]oxazolo[4,5-c]pyridin-4-amine]	6.7
Fc1cccnc1CNc1nccc2oc(CCNCCc3ncc(C(F)(F)F)[nH]3)nc12 [Compound 57, N-[(3-fluoropyridin-2-yl)methyl]-2-[2-({2-[5-(trifluoromethyl)-1H-imidazol-2-yl]ethyl}amino)ethyl]-[1,3]oxazolo[4,5-c]pyridin-4-amine]	5.4
Fc1cccnc1CNc1nccc2oc(CCNCCc3ncc[nH]3)nc12 [Compound 58]	5.7
Oc1cc2oc(CCNCCc3nc4ccccc4[nH]3)nc2c(NCc2ncccc2F)n1 [Compound 59, 2-(2-{[2-(1H-1,3-benzodiazol-2-yl)ethyl]amino}ethyl)-4-{[(3-fluoropyridin-2-yl)methyl]amino}-[1,3]oxazolo[4,5-c]pyridin-6-ol]	6.2
CC(CNCCc1nc2c(NCc3ncccc3F)nccc2o1)c1nc2ccccc2[nH]1 (stereo not drawn) [Compound 61, 2-(2-{[2-(1H-1,3-benzodiazol-2-yl)propyl]amino}ethyl)-N-[(3-fluoropyridin-2-yl)methyl]-[1,3]oxazolo[4,5-c]pyridin-4-amine]	6.9
Fc1cccnc1CNc1nccc2oc(CCNCCc3ncc(Cc4ccccc4)[nH]3)nc12 [Compound 62]	7.7
Fc1cccnc1CNc1nccc2oc(CCNCCc3ncc(CC4CC4)[nH]3)nc12 [Compound 63, 2-[2-({2-[5-(cyclopropylmethyl)-1H-imidazol-2-yl]ethyl}amino)ethyl]-N-[(3-fluoropyridin-2-yl)methyl]-[1,3]oxazolo[4,5-c]pyridin-4-amine]	5.1
Cc1nc(CCNCCc2nc3c(NCc4ncccc4F)ncnc3s2)[nH]c1-c1ccccc1 [Compound 64, N-[(3-fluoropyridin-2-yl)methyl]-2-(2-{[2-(4-methyl-5-phenyl-1H-imidazol-2-yl)ethyl]amino}ethyl)-[1,3]thiazolo[5,4-d]pyrimidin-7-amine]	7
Cc1ncc(-c2cc(CNCCc3nc4c(NCc5ncccc5F)ncnc4s3)c(Cl)s2)[nH]1 [Compound 69, 2-[2-({[2-chloro-5-(2-methyl-1H-imidazol-5-yl)thiophen-3-yl]methyl}amino)ethyl]-N-[(3-fluoropyridin-2-yl)methyl]-[1,3]thiazolo[5,4-d]pyrimidin-7-amine]	5.2
Cc1nc(-c2ccc(Cl)s2)c(CNCCc2nc3c(NCc4ncccc4F)ncnc3s2)[nH]1 [Compound 70, 2-[2-({[4-(5-chlorothiophen-2-yl)-2-methyl-1H-imidazol-5-yl]methyl}amino)ethyl]-N-[(3-fluoropyridin-2-yl)methyl]-[1,3]thiazolo[5,4-d]pyrimidin-7-amine]	5.6
Fc1cccnc1CNc1ncnc2sc(CC3CCCC(Cc4nc5ccccc5[nH]4)N3)nc12 (stereo not drawn) [Compound 71, 2-({6-[(1H-1,3-benzodiazol-2-yl)methyl]piperidin-2-yl}methyl)-N-[(3-fluoropyridin-2-yl)methyl]-[1,3]thiazolo[5,4-d]pyrimidin-7-amine]	5.2
Cc1nc(CCNCCc2nc3c(NCc4ncccc4F)nccc3s2)[nH]c1C [Compound 73, 2-(2-{[2-(4,5-dimethyl-1H-imidazol-2-yl)ethyl]amino}ethyl)-N-[(3-fluoropyridin-2-yl)methyl]-[1,3]thiazolo[4,5-c]pyridin-4-amine]	7.6
Fc1cccnc1CNc1nccc2oc([C@H](F)CNCCc3nc4ccccc4[nH]3)nc12 [Compound 74, 2-[(1R)-2-{[2-(1H-1,3-benzodiazol-2-yl)ethyl]amino}-1-fluoroethyl]-N-[(3-fluoropyridin-2-yl)methyl]-[1,3]oxazolo[4,5-c]pyridin-4-amine]	6.9

Now from value to molecule:

pEC50	Structure (SMILES)
8.2	Fc1cccnc1CNc1ncnc2sc(CCNCCc3ncc(C4CC4)[nH]3)nc12 [Compound 51, 2-(2-{[2-(5-cyclopropyl-1H-imidazol-2-yl)ethyl]amino}ethyl)-N-[(3-fluoropyridin-2-yl)methyl]-[1,3]thiazolo[5,4-d]pyrimidin-7-amine]
7.6	Cc1nc(CCNCCc2nc3c(NCc4ncccc4F)ncnc3s2)[nH]c1C [Compound 55, 2-(2-{[2-(4,5-dimethyl-1H-imidazol-2-yl)ethyl]amino}ethyl)-N-[(3-fluoropyridin-2-yl)methyl]-[1,3]thiazolo[5,4-d]pyrimidin-7-amine]
5.8	Fc1cccnc1CNc1ncnc2sc(CCNCCc3ncc(-c4cccnc4)[nH]3)nc12 [Compound 60, N-[(3-fluoropyridin-2-yl)methyl]-2-[2-({2-[5-(pyridin-3-yl)-1H-imidazol-2-yl]ethyl}amino)ethyl]-[1,3]thiazolo[5,4-d]pyrimidin-7-amine]
6.2	Fc1cccnc1CNc1ncnc2sc(CCNCCc3ncc(-c4ccccn4)[nH]3)nc12 [Compound 65, N-[(3-fluoropyridin-2-yl)methyl]-2-[2-({2-[5-(pyridin-2-yl)-1H-imidazol-2-yl]ethyl}amino)ethyl]-[1,3]thiazolo[5,4-d]pyrimidin-7-amine]
6.2	Fc1cccc(-c2cnc(CCNCCc3nc4c(NCc5ncccc5F)ncnc4s3)[nH]2)c1 [Compound 67, 2-[2-({2-[5-(3-fluorophenyl)-1H-imidazol-2-yl]ethyl}amino)ethyl]-N-[(3-fluoropyridin-2-yl)methyl]-[1,3]thiazolo[5,4-d]pyrimidin-7-amine]
5.8	Fc1ccc(-c2cnc(CCNCCc3nc4c(NCc5ncccc5F)ncnc4s3)[nH]2)cc1 [Compound 68, 2-[2-({2-[5-(4-fluorophenyl)-1H-imidazol-2-yl]ethyl}amino)ethyl]-N-[(3-fluoropyridin-2-yl)methyl]-[1,3]thiazolo[5,4-d]pyrimidin-7-amine]
6.4	Fc1cccnc1CNc1ncnc2sc(CCNCCc3ncc(-c4ccc(Cl)s4)[nH]3)nc12 [Compound 72, 2-[2-({2-[5-(5-chlorothiophen-2-yl)-1H-imidazol-2-yl]ethyl}amino)ethyl]-N-[(3-fluoropyridin-2-yl)methyl]-[1,3]thiazolo[5,4-d]pyrimidin-7-amine]
